From publication PMC7312375, “A Novel, Pan-PDE Inhibitor Exerts Anti-Fibrotic Effects in Human Lung Fibroblasts via Inhibition of TGF-β Signaling and Activation of cAMP/PKA Signaling” (International Journal of Molecular Sciences, 2020)

Legend:
[1] = test system: TGF-β1-induced MRC-5 cells; assay: Western blot of p-Smad-2; assay type: cell-based, human; settings: 10 µM, 1 h pre-incubation, TGF-β1 5 ng/mL 1 h
Experimental: Western Blot analysis was performed according to a standard protocol. Briefly, MRC-5 cells were pre-incubated with the study compounds (10 µM) for 1 h, […] (RIPA Lysis and Extraction Buffer, Thermo Fisher Scientific, Waltham, MA, USA) and supplemented with protease inhibitor cocktail and phosphatase inhibitor cocktail (both from Sigma Aldrich, St. Louis, MO, USA). Equal amounts of protein (30 µg) were separated using 10% SDS-polyacrylamide gels and transferred onto polyvinylidene difluoride (PVDF) membranes (Thermo Fisher Scientific, Waltham, MA, USA). Then membranes were washed with Tris Buffered Saline with Tween 20 (TBST) buffer (150 mM NaCl, 50 mM Tris, 0.05% Tween 20), blocked with 5% skim milk in TBST and incubated overnight with the appropriate primary antibody: rabbit, polyclonal anti-SMAD2 antibody, dilution 1:250, #51-1300 and rabbit, polyclonal anti-phospho-SMAD2 (Ser465, Ser467) antibody, dilution 1:500, #44-244G (both from Thermo Fisher Scientific, Waltham, MA, USA); rabbit, polyclonal anti-CREB1 antibody, dilution 1:500, #orb213777 and rabbit, polyclonal anti-phospho-CREB1 (Ser133) antibody, dilution 1:500, #orb213775 (both from Biorbyt LLC, San Francisco, CA, USA); mouse monoclonal anti-GAPDH antibody, dilution 1:5000, #G8795 (Sigma Aldrich, St. Louis, MO, USA). The next day, after gentle rising, membranes were exposed to secondary, rabbit anti-mouse IgG (whole molecule) peroxidase antibody (#A9044, dilution 1:3000, Sigma Aldrich, St. Louis, MO, USA) and goat anti-rabbit IgG (H+L) peroxidase-conjugated antibody (#32460, dilution 1:3000, Thermo Fisher Scientific, Waltham, MA, USA). Blots were visualized using a chemiluminescence method (Clarity Max™ Western ECL Substrate—Peroxide Solution, BioRad, Hercules, CA, USA) with a C-DiGit® Blot Scanner (LI-COR Biosciences, Lincoln, NE, USA). ROD was measured according to the NIH guidelines with Fiji ImageJ Software. The experiments were run four times.

[2] = target: T1, PDE4A (Homo sapiens, UniProt P27815); assay: PDE-Glo assay, human recombinant PDE4A; assay type: biochemical; settings: read-out: PDE-IC50 4A
T1 construct: purchased SignalChem
Experimental: (§1) Inhibitory activities of the investigated compounds against various subtypes of human recombinant (hr)PDEs, namely PDE1A, PDE1B, PDE1C, PDE3A, PDE3B, PDE4A, PDE4B, PDE4D, PDE7A, and PDE8A were assessed using a PDE-Glo^TM Assay Kit (Promega, Madison, WI, USA) according to the protocol provided by the manufacturer. Briefly, appropriate amounts of each enzyme (SignalChem, Richmond, B.C., Canada), diluted with PDE-Glo reaction buffer, were distributed on a 384-well plate (Thermo Scientific, Waltham, MA, USA). The investigated compounds were dissolved in DMSO, diluted with the same vehicle, and mixed with the reaction buffer at a v/v ratio of 1:5. Thereafter, 1 µL of these mixtures and 2.5 µL of the cAMP solution as a substrate were added. The final cAMP concentration was 0.05 µM. The samples were incubated for 10 min at 30 °C. Then, 2.5 µL of termination buffer and 2.5 µL of PDE-Glo detection solution were added to each well and incubated for 20 min. Finally, 10 µL of PDE-Glo kinase reagent was added, and luminescence was measured using the POLARstar Omega plate reader (BMG LABTECH, Ortenberg, Germany). Each sample was prepared in quadruplicate. The relative activities (A, %) of all samples were calculated from the following equation: A = [(LUsample − LUblank)/(LUcontrol − LUblank)]·100%; where LUcontrol is the luminescence of a control sample in the absence of a PDE inhibitor, LUsample is a luminescence of an investigated sample in the presence of an inhibitor, and LUblank is a luminescence of a sample in the absence of enzyme (activity = 0). IC50 values were estimated using non-linear regression.

[3] = target: T2, PDE3B (Homo sapiens, UniProt Q13370); assay: PDE-Glo assay, human recombinant PDE3B; assay type: biochemical; settings: read-out: PDE-IC50 3B
T2 construct: purchased SignalChem
Experimental: as §1

[4] = test system: TGF-β1-induced MRC-5 cells; assay: Immunofluorescence count of α-SMA positive myofibroblasts; assay type: cell-based, human; settings: 10 µM, 48 h TGF-β1 5 ng/mL
Experimental: (§2) For immunocytochemical labeling, MRC-5 cells were seeded on glass coverslips. Study compounds (10 µM) were added 1 h before TGF-β1 treatment, and analysis was performed after 1 h (p-Smad-2 and p-CREB detection) or 48 h (α-SMA detection) of incubation. Cells were fixed in methanol or 4% formaldehyde solution, permeabilized in 0.2% or 0.1% Triton X-100 solution (for p-Smad-2 and p-CREB or α-SMA, respectively). After incubation in blocking solution the following primary antibodies: rabbit polyclonal, anti-phospho-Smad-2 (Ser465, Ser467) antibody (#44-244G, Thermo Fisher Scientific, Waltham, MA, USA); rabbit polyclonal, anti-phospho-CREB1 (Ser133) antibody (#orb213775, Biorbyt, Cambridge, United Kingdom); mouse monoclonal, anti-α-SMA antibody (#MA5-11547, Thermo Fisher Scientific, Waltham, MA, USA) and secondary antibodies: goat anti-rabbit Alexa Fluor 546 conjugated antibody and goat anti-mouse Alexa Fluor 488 conjugated antibody (#A-11010 and #A-11001, respectively, Invitrogen, Carlsbad, CA, USA) were used. Nuclei were counterstained with Hoechst 33342 dye (Thermo Fisher Scientific, Waltham, MA, USA). Slides were mounted in ProLong™ Glass Antifade Mountant (Invitrogen, Carlsbad, CA, USA) and analyzed using Leica DMiL LED Fluo microscope (for α-SMA and p-CREB visualization, 40× objective) or Leica DMi8 with Thunder Imaging System (for p-Smad-2 visualization, 40× objective), all equipped with LAS-X Software (Leica Microsystems GmbH, Wetzlar, Germany). Experiments were run four times using five randomly selected fields of view, at the same fluorescent time exposure and in a blind-folded manner.

[5] = test system: MRC-5 cells; assay: TGF-β1-induced collagen gel contraction assay; assay type: cell-based, human; settings: 10 µM, 1 h pre-incubation, 6 h TGF-β1; compared to TGF-β1 alone
Experimental: A collagen cell contraction assay was performed according to manufactures’ instructions (Cell Biolabs, INC., San Diego, CA, USA). Briefly, MRC-5 was harvested and mixed with a collagen solution. After polymerization, collagen gel lattices were cultured for two days, during which mechanical tension develops. Before releasing the stressed matrix, MRC-5 cells were pre-treated with study compounds (10 µM) for 1 h. Then collagen gels were gently released from the sides of the culture dishes and contraction in the presence of study compounds, and TGF-β1 was initiated. The collagen gel size was monitored at various time points and quantified with the Fiji ImageJ Software (National Institutes of Health, Bethesda, MD, USA, version 1.52q). The experiments were run three times.

[6] = test system: TGF-β1-induced MRC-5 cells; assay: Immunofluorescence, nuclear localization of p-CREB; assay type: cell-based, human; settings: 10 µM
Experimental: as §2

T2 sequence (Q13370 whole entry): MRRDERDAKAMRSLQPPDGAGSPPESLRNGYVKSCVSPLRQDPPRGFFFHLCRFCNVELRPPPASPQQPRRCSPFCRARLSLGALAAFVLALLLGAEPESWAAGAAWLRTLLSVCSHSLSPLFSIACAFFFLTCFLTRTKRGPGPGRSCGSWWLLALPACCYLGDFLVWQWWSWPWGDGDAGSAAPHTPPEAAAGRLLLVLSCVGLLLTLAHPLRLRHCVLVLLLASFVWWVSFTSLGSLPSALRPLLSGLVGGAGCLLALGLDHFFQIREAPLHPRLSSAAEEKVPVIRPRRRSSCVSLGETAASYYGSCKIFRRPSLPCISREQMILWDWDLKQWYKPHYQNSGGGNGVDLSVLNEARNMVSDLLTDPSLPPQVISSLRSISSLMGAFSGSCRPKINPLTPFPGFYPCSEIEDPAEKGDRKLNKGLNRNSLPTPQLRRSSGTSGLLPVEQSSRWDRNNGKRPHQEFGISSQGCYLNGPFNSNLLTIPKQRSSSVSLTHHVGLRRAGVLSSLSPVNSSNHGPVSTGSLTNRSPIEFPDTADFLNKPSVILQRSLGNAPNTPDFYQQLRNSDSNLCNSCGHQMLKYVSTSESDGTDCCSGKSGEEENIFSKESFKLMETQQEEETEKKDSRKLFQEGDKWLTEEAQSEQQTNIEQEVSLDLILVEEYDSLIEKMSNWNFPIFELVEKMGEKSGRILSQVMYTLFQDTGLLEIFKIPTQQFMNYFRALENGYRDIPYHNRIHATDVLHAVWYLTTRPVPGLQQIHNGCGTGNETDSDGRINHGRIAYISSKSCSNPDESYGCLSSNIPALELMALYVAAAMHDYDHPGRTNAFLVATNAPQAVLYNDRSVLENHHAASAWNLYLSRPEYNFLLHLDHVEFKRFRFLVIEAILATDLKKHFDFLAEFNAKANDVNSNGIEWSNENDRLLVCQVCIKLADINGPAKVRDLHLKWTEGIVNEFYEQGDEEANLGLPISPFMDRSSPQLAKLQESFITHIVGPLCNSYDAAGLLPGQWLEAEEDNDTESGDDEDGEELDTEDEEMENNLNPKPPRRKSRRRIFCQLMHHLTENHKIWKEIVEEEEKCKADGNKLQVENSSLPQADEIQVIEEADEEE
T1 sequence (P27815 whole entry): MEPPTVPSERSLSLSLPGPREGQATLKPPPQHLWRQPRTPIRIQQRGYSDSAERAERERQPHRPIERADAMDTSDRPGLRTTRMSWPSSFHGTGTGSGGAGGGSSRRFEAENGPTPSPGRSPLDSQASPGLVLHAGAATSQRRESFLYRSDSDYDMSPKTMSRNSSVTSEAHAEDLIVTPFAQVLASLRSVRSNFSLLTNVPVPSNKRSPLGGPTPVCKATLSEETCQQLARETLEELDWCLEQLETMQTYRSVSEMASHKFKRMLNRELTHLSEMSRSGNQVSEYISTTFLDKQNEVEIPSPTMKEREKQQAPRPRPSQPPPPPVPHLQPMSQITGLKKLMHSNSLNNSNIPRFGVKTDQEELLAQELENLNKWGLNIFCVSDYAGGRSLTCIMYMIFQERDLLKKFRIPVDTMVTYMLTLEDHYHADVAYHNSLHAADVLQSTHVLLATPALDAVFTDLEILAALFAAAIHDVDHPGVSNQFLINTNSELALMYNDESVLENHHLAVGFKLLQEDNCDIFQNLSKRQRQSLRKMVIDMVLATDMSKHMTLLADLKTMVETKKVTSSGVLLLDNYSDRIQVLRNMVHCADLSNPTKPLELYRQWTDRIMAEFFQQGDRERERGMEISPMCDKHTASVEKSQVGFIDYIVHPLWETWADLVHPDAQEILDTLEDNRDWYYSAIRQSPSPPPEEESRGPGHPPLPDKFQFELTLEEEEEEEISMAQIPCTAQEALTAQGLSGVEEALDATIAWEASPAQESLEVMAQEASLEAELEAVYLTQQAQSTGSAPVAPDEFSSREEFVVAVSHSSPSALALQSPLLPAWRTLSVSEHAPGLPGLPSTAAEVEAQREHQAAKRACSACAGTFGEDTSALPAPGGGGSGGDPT

Structure (SMILES): CCCCOc1nc2c(c(=O)n(C)c(=O)n2C)n1CCCC(=O)Nc1cc(C(C)(C)C)ccc1O [Compound 145, 4-(8-butoxy-1,3-dimethyl-2,6-dioxo-1,2,3,6-tetrahydro-7H-purin-7-yl)-N-(5-(tert-butyl)-2-hydroxyphenyl)butanamide]
- TGF-β1-induced Smad-2 phosphorylation (immunoblot) [1]: reduced
- IC50 [2]: 1.59 µM
- IC50 [3]: 2.05 µM
- number of myofibroblasts (MRC-5 with α-SMA-positive stress fibers); fibroblast to myofibroblast transition [4]: the most significant decrease
- size of collagen gel lattices (TGF-β1-induced contraction) [5]: restored the size of collagen gel lattices to that of the untreated control
- elevation of fraction of MRC-5 cells with nuclear p-CREB localization [6]: 70%

Structure (SMILES): Cn1c(=O)c2c(nc(NCc3ccco3)n2CCCC(=O)NN=Cc2ccc(O)cc2O)n(C)c1=O [Compound 832, N′-(2,4-dihydroxybenzylidene)-4-(8-((furan-2-ylmethyl)amino)-1,3-dimethyl-2,6-dioxo-1,2,3,6-tetrahydro-7H-purin-7-yl)butanehydrazide]
- TGF-β1-induced Smad-2 phosphorylation (immunoblot) [1]: no differences
- IC50 [2]: 4.75 µM
- IC50 [3]: 0.42 µM
- number of myofibroblasts (MRC-5 with α-SMA-positive stress fibers); fibroblast to myofibroblast transition [4]: decreased
- size of collagen gel lattices (TGF-β1-induced contraction) [5]: increased only slightly
- elevation of fraction of MRC-5 cells with nuclear p-CREB localization [6]: only a slight increase

Structure (SMILES): COc1nc2c(c(=O)n(C)c(=O)n2C)n1CC(=O)Nc1ccc(C(C)(C)C)cc1 [Compound 869, N-(4-(tert-butyl)phenyl)-2-(8-methoxy-1,3-dimethyl-2,6-dioxo-1,2,3,6-tetrahydro-7H-purin-7-yl)acetamide]
- TGF-β1-induced Smad-2 phosphorylation (immunoblot) [1]: no differences
- IC50 [2]: 58.1 µM
- IC50 [3]: 157 µM
- number of myofibroblasts (MRC-5 with α-SMA-positive stress fibers); fibroblast to myofibroblast transition [4]: decreased
- size of collagen gel lattices (TGF-β1-induced contraction) [5]: increased only slightly
- elevation of fraction of MRC-5 cells with nuclear p-CREB localization [6]: only a slight increase

Structure (SMILES): CC(C)Cn1c(=O)n(C)c(=O)c2[nH]cnc21 [IBMX, 3-isobutyl-1-methyl-3,7-dihydro-1H-purine-2,6-dione, reference compound]
- TGF-β1-induced Smad-2 phosphorylation (immunoblot) [1]: no differences
- IC50 [2]: 16.4 µM
- IC50 [3]: 0.31 µM
- size of collagen gel lattices (TGF-β1-induced contraction) [5]: restored the size of collagen gel lattices to that of the untreated control
- elevation of fraction of MRC-5 cells with nuclear p-CREB localization [6]: only a slight increase
